For five compounds, IC50 and viability, T/C results are on record in PubChem BioAssay AID1963959 (Molecular Pharmacology Branch, DTP, NCI, 2024).

The structures appear in SMILES notation. Where “and” joins values, the source holds several entries; their conditions need not be identical. Identical values can stand only once. Some results are limits rather than exact numbers.

This test deals with T-47D spheroids with HUVEC/MSC, viability. Put plainly: Anticancer human tumor T-47D cell line growth inhibition [PI3K].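 On all read-outs here: spheroids exposed to agents for seven days before reading.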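 On viability, T/C: percent of DMSO vehicle control luminescence so 100% = untreated growth.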 Particulars: for viability, T/C: stronger effect = lower value. The method in brief:
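Agents were dosed from a top concentration near clinical Cmax (otherwise 10 microM) in half-log decrements, alone or combined with PI3K inhibitors. The spheroids contain tumor cells plus endothelial (HUVEC) and MSC stroma; viability is measured.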

The mark [1] stands for this setting: curve of first compound, second compound 0.0316 µM.
[2] abbreviates: curve of first compound, second compound 0.1 µM.
Where [3] appears, read: curve of first compound, second compound 0.316 µM.
Setting [4] is: curve of first compound, second compound 1 µM.
The mark [5] stands for this setting: curve of first compound, second compound 3.16 µM.
Setting [6] is: curve of first compound, second compound 10 µM.
The mark [7] stands for this setting: second compound 0.0316 µM, first compound 0.0316 µM.
Where [8] appears, read: second compound 0.0316 µM, first compound 0.1 µM.
Setting [9] is: second compound 0.1 µM, first compound 0.0316 µM.
Where [10] appears, read: second compound 0.1 µM, first compound 0.1 µM.
[11] abbreviates: second compound 0.316 µM, first compound 0.0316 µM.
[12] abbreviates: second compound 0.316 µM, first compound 0.1 µM.
Where [13] appears, read: second compound 1 µM, first compound 0.0316 µM.
The mark [14] stands for this setting: second compound 1 µM, first compound 0.1 µM.
The mark [15] stands for this setting: second compound 3.16 µM, first compound 0.0316 µM.
[16] abbreviates: second compound 3.16 µM, first compound 0.1 µM.
Where [17] appears, read: second compound 10 µM, first compound 0.0316 µM.
[18] abbreviates: second compound 10 µM, first compound 0.1 µM.

Consider `Cn1nccc1Nc1nccc(-c2ccn(C(CO)c3ccc(Cl)c(F)c3)c(=O)c2)n1` (stereo unspecified) + CC(Nc1ncnc2nc[nH]c12)c1cc2cccc(Cl)c2c(=O)n1-c1ccccc1, for which the half-maximal inhibitory concentration (IC50) is greater than 10 µM under setting [1]; greater than 10 µM under setting [2]; greater than 10 µM under setting [3]; greater than 10 µM under setting [4]; greater than 10 µM under setting [5]; greater than 10 µM under setting [6]. Moreover, the viability, T/C was 114% under setting [7]; 91.8% under setting [8]; 116% (second compound 0.0316 µM, first compound 0.316 µM); 103% (second compound 0.0316 µM, first compound 1 µM); 115% (second compound 0.0316 µM, first compound 3.16 µM); 90.4% (second compound 0.0316 µM, first compound 10 µM). The viability, T/C under setting [9] is 109%; the viability, T/C under setting [10] is 99.9%; the viability, T/C (second compound 0.1 µM, first compound 0.316 µM) was 99.2%; the viability, T/C (second compound 0.1 µM, first compound 1 µM) is 85.5%; the viability, T/C (second compound 0.1 µM, first compound 3.16 µM) is 104%; the viability, T/C (second compound 0.1 µM, first compound 10 µM) is 81%. Besides, the viability, T/C under setting [11] was 80.2%; the viability, T/C under setting [12] was 96.7%; the viability, T/C (second compound 0.316 µM, first compound 0.316 µM) was 87.5%; the viability, T/C (second compound 0.316 µM, first compound 1 µM) was 88.8%; the viability, T/C (second compound 0.316 µM, first compound 3.16 µM) was 118%; the viability, T/C (second compound 0.316 µM, first compound 10 µM) was 83.5%. The viability, T/C under setting [13] is 88.4%; the viability, T/C under setting [14] was 108%; the viability, T/C (second compound 1 µM, first compound 0.316 µM) was 98.4%; the viability, T/C (second compound 1 µM, first compound 1 µM) is 113%; the viability, T/C (second compound 1 µM, first compound 3.16 µM) is 111%; the viability, T/C (second compound 1 µM, first compound 10 µM) was 84.2%. Moreover, the viability, T/C reads like this: under setting [15], 101%; under setting [16], 97.6%; (second compound 3.16 µM, first compound 0.316 µM) 97.6%; (second compound 3.16 µM, first compound 1 µM) 85.5%; (second compound 3.16 µM, first compound 3.16 µM) 108%; (second compound 3.16 µM, first compound 10 µM) 96.3%. In addition, the viability, T/C is 97.1% under setting [17]; 84.1% under setting [18]; 95.8% (second compound 10 µM, first compound 0.316 µM); 94% (second compound 10 µM, first compound 1 µM); 125% (second compound 10 µM, first compound 3.16 µM); 73.9% (second compound 10 µM, first compound 10 µM).
Consider `CCCS(=O)(=O)Nc1ccc(F)c(C(=O)c2c[nH]c3ncc(-c4ccc(Cl)cc4)cc23)c1F`, for which the viability, T/C was 91% and 97.4% (2×) and 99.9% (compound 0.0316 µM); 94.3% [middle of 4 runs] (compound 0.1 µM); 106% [middle of 4 runs] (compound 0.316 µM); 107% [middle of 4 runs] (compound 1 µM); 47.2% [middle of 4 runs] (compound 10 µM). The IC50 (curve of compound) was 9.4 µM [middle of 4 runs].
Turning to `CC(Nc1ccc2c(c1)OCCn1cc(N3C(=O)OCC3C(F)F)nc1-2)C(N)=O` (stereo unspecified), the viability, T/C is, setting by setting: (compound 0.00316 µM) 95.1% [middle of 8 runs]; (compound 0.0316 µM) 93.7% [middle of 8 runs]; (compound 0.316 µM) 79.9% [middle of 8 runs]; (compound 1 µM) 57.9% [middle of 8 runs]. Besides, the 50% inhibitory concentration (IC50) (compound alone, run of 04/24/2023) was greater than 1 µM.
For the compound `Cn1ncnc1[C@H]1c2n[nH]c(=O)c3cc(F)cc(c23)N[C@@H]1c1ccc(F)cc1` + CC(Nc1ncnc2nc[nH]c12)c1cc2cccc(Cl)c2c(=O)n1-c1ccccc1, the IC50 was greater than 0.1 µM under setting [1]; greater than 0.1 µM under setting [2]; greater than 0.1 µM under setting [3]; greater than 0.1 µM under setting [4]; greater than 0.1 µM under setting [5]; greater than 0.1 µM under setting [6]. The viability, T/C is, setting by setting: (second compound 0.0316 µM, first compound 0.000316 µM) 86.8%; (second compound 0.0316 µM, first compound 0.001 µM) 92.8%; (second compound 0.0316 µM, first compound 0.00316 µM) 79.7%; (second compound 0.0316 µM, first compound 0.01 µM) 94.8%; under setting [7], 99.6%; under setting [8], 80.8%. For the same compound, the viability, T/C (second compound 0.1 µM, first compound 0.000316 µM) was 110%; the viability, T/C (second compound 0.1 µM, first compound 0.001 µM) is 82.2%; the viability, T/C (second compound 0.1 µM, first compound 0.00316 µM) was 99.3%; the viability, T/C (second compound 0.1 µM, first compound 0.01 µM) was 91.5%; the viability, T/C under setting [9] was 89.5%; the viability, T/C under setting [10] is 93.3%. Further, the viability, T/C reads like this: (second compound 0.316 µM, first compound 0.000316 µM) 98.1%; (second compound 0.316 µM, first compound 0.001 µM) 82.9%; (second compound 0.316 µM, first compound 0.00316 µM) 90.6%; (second compound 0.316 µM, first compound 0.01 µM) 100%; under setting [11], 85.6%; under setting [12], 92.1%. The viability, T/C is, setting by setting: (second compound 1 µM, first compound 0.000316 µM) 98.3%; (second compound 1 µM, first compound 0.001 µM) 89.6%; (second compound 1 µM, first compound 0.00316 µM) 102%; (second compound 1 µM, first compound 0.01 µM) 74.5%; under setting [13], 86.5%; under setting [14], 92.6%. The viability, T/C runs as follows: (second compound 3.16 µM, first compound 0.000316 µM) 86.3%; (second compound 3.16 µM, first compound 0.001 µM) 90.2%; (second compound 3.16 µM, first compound 0.00316 µM) 88.6%; (second compound 3.16 µM, first compound 0.01 µM) 83.2%; under setting [15], 103%; under setting [16], 96.3%. The viability, T/C by setting is: (second compound 10 µM, first compound 0.000316 µM) 80.7%; (second compound 10 µM, first compound 0.001 µM) 81.7%; (second compound 10 µM, first compound 0.00316 µM) 83.4%; (second compound 10 µM, first compound 0.01 µM) 92.3%; under setting [17], 102%; under setting [18], 83.7%.
For `Cn1nccc1Nc1nccc(-c2ccn(C(CO)c3ccc(Cl)c(F)c3)c(=O)c2)n1` (stereo unspecified), the viability, T/C is 103% [middle of 4 runs] (compound 0.0316 µM); 93.2% [middle of 4 runs] (compound 0.1 µM); 105% [middle of 4 runs] (compound 0.316 µM); 99.5% [middle of 4 runs] (compound 3.16 µM); 82.5% and 92.7% and 101% (2×) (compound 10 µM). Moreover, the IC50 (curve of compound) is greater than 10 µM.
